From patent US20110207697A1, “XANTHOHUMOL COMPOSITIONS AND METHODS FOR TREATING SKIN DISEASES OR DISORDERS” (Betal, LLC, priority 2008, published 2011)
Converted amounts (≈) assume the structure as drawn. Like-named read-outs stand apart in the source and are kept apart here.

Columns and labels:
[1] = system: P. acnes (ATCC 6919); experiment: Antimicrobial susceptibility, broth dilution (MIC/MBC); assay type: cell-based, Propionibacterium acnes
Description: (§1) The antibacterial effects of seven hops components against five different strains of bacteria involved in primary or secondary skin and soft tissue infections was evaluated, with broth dilution methods. […] Antimicrobial susceptibility testing was performed using a broth dilution method. Gentamicin or ampicillin was used as a control to verify the methodology. A stock solution (20 mg/ml) of the test substance (or vehicle control) was prepared in dimethyl sulfoxide. Serial dilution was done in microwell plates. Reinforced Clostridial Medium was used for P. acnes (ATCC 6919). Three hundreds […] of the test substance was added to the test tube containing P. acnes (10^5 CFU/ml) in 2.7 ml of cultures grown under anaerobic conditions. Mueller-Hinston Broth suitable for culturing S. epidermidis (ATCC 12228), K. rhizophila (formerly M. luteus) (ATCC 9341), and S. aureus (ATCC […]), and Brain Heart Infusion Broth suitable for culturing S. pyogenes (ATCC 14289) were used. A total of […] of the test substance was added to the test tube containing the other microorganisms (10^5CFU/ml) in 0.9 ml of cultures grown under controlled conditions. […] Samples from those tubes that scored positive was plated onto an agar plate and incubated under controlled conditions.

[2] = system: S. epidermidis (ATCC 12228); experiment: as above; assay type: cell-based, Staphylococcus epidermidis
Description: as §1

[3] = Hydrophilic oxygen radical absorbance capacity (ORAC-H); conditions: water-soluble antioxidant capacity; expressed as mmol TE/g; — = No activity detected
Excerpt: (§2) Thus the ORAC method has become a widely used method for assessing antioxidant capacity in biological samples and foods. However, because of its inability to measure both hydrophilic and lipophilic antioxidants, the method has its limitations. An ORAC method for lipophilic antioxidants was further developed and validated using fluorescein as the fluorescent probe (Prior et al. 2003 J. Agric. Food Chem. 51: 3273-3279). […] In the present work, the ORAC value is expressed as the sum of values of both the water-soluble and fat-soluble parts. […] Both hydrophilic and lipophilic oxygen radical absorbance capacity (ORAC) assays were carried out at Brunswick Laboratory (Wareham, Mass.) based on the modified ORACfl method reported by Ou et al. (2001 J. Agric. Food Chem. 49: 4619-4626, 2002 J. Agr. Food Chem. 50: 3122-3128). Trolox, a water-soluble vitamin E analog, was used as the calibration standard. The data are expressed as mmole of Trolox equivalents per gram (mmol TE/g). […] Hydroxyl radical ORAC (HOR-AC) is expressed as mmole caffeic acid equivalent per gram (mmol CAE/g). […] The peroxyl nitrite ORAC (NORAC) result is expressed as mmol TE/g. […] Radical-scavenging activity was measured by the change in absorbance at 517 nm with the DPPH result expressed as mmol TE/g. […] The FRAP result is expressed as mmol TE/g (Ou et al. 2002b).

[4] = Lipophilic oxygen radical absorbance capacity (ORAC-L); conditions: lipid soluble antioxidant capacity; expressed as mmol TE/g; — = No activity detected
Excerpt: as §2

[5] = Water solubility of xanthohumol (HPLC of supernatant); assay type: physicochemical; conditions: thermodynamic from solid, 1 mg xanthohumol per ml water, sonicated 5 minutes
Description: Pure xanthohumol (XN), Xanohop A, xanthohumol-gamma cyclodextrin (XN/gCD), and xanthohumol-beta cyclodextrin (XN/bCD) were dispersed in water at a ratio of 1 mg xanthohumol per ml of water. After being sonicated for 5 minutes, the resultant suspensions were centrifuged at 3,000 rpm for 2 minutes or 12,000 rpm for 3 minutes. The supernatants thus formed were collected, diluted (1:10) with methanol, and then injected into HPLC to determine xanthohumol concentrations.

[6] = FRAP ferric reducing antioxidative power; conditions: FIG. 2 radar chart
Description: [table] […] The SOAC scores are not included in this figure; ORAC values used are the sum of lipophilic and hydrophilic results. For each assay category, scaling was made logarithmic so that the plot on the chart resembles the associated rating. […] The larger the spatial area, the higher the overall antioxidative capacity. […] Both hydrophilic and lipophilic oxygen radical absorbance capacity (ORAC) assays were carried out at Brunswick Laboratory (Wareham, Mass.) based on the modified ORACfl method reported by Ou et al. (2001 J. Agric. Food Chem. 49: 4619-4626, 2002 J. Agr. Food Chem. 50: 3122-3128). Trolox, a water-soluble vitamin E analog, was used as the calibration standard. The data are expressed as mmole of Trolox equivalents per gram (mmol TE/g). The acceptable precision of the ORAC assay is a 15% relative standard deviation. […] Hydroxyl radical ORAC (HOR-AC) is expressed as mmole caffeic acid equivalent per gram (mmol CAE/g). […] The peroxyl nitrite ORAC (NORAC) result is expressed as mmol TE/g. Alpha-tocopherol (vitamin E) was used as the calibration standard, and the singlet oxygen absorbance capacity (SOAC) result is expressed as mmole a-tocopherol equivalent (mmol VtE) per gram (Aubry et al. 1989). […] Radical-scavenging activity was measured by the change in absorbance at 517 nm with the DPPH result expressed as mmol TE/g. […] The FRAP result is expressed as mmol TE/g (Ou et al. 2002b). […]

MIC ([1]; minimal 100% inhibitory concentration, 2 days): 3 µg/mL (≈ 8.46 µM)
MIC ([2]; 1 day): 3 µg/mL (≈ 8.46 µM)
MIC ([2]; Staphylococcus epidermidis, ATCC12228): 1000 µg/mL (≈ 2820 µM)
solubility at 5 min ([5]; centrifuged 3,000 rpm 2 minutes, read-out: Water-solubility of XN (3,000 rpm)): 4 µg/mL (≈ 11.3 µM)
solubility at 5 min ([5]; centrifuged 12,000 rpm 3 minutes, read-out: Water-solubility of XN (12,000 rpm)): 2 µg/mL (≈ 5.64 µM)
SMILES: COc1cc(O)c(CC=C(C)C)c(O)c1C(=O)/C=C/c1ccc(O)cc1 [Xanthohumol (7), 3′-[3,3-dimethylallyl]-2′,4′,4-trihydroxy-6′-methoxychalcone]
MBC ([1]; Cutibacterium acnes, ATCC6919, read-out: MBC): 3000 µg/mL (≈ 8460 µM)
MBC ([1]; lowest concentration required to kill): [3] g/mL
MBC [2]: [10] g/mL
ORAC-H (Trolox equivalent) [3]: 2.1 Trolox equivalent
ORAC-L (Trolox equivalent) [4]: 2.1 Trolox equivalent
quenching activity against ferric ion (FRAP), rank among hop components [6]: highest quenching activity
